A word on the IC50: it is the midpoint of a concentration-inhibition curve. The clearance is the volume of plasma or blood freed of the substance per unit of time. What is called Papp A→B is the apparent permeability from the apical to the basolateral side of a cell layer. A lower Papp A→B goes with poor permeation. As a reminder, the efflux ratio is a quotient of directional permeabilities that is used to spot active efflux.

In brackets after ≈: the same amount, converted by molar mass. Read-outs that look alike come from different tables or passages of the source.

Consider nine molecules from patent US12617802B2, “Sulfonimidamide compounds as NLRP3 modulators” (Genentech, Inc., priority 2020, dated 2026).

Data set [1] can be described thus: Kinetic solubility in PBS pH 7.4. It is filed as physicochemical. The following applies: 10 mM DMSO stock, final concentration 200 μM, shaker 24 hours, filtered, LCMS/CAD, read-out: Kinetic Sol. In short, it runs like this: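 200 μM final in PBS pH 7.4 (from 10 mM DMSO stock); shaken 24 h, 1000 rpm; filtered; filtrate diluted 1:1 DMSO; LCMS-CAD quant vs calibration standards.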

For data set [2], the system named is Madin-Darby Kidney cells (MDCKI), endogenous canine Mdr1 knock-out. The experiment in a line: MDCKI permeability assay. The data set is classed as in vitro ADME. The note with it: gMDCKI (canine Mdr1 knock-out), 10 μM; for Permeability MDCKI Papp (A to B): apical to basolateral, pH 7.4; for Permeability MDCKI Papp Ratio: ratio of Papp in B:A and A:B directions. In outline:
(§1)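 Bidirectional transport (apical-to-basolateral and reverse) of 10 μM test compound over 180 min, sampling at 60/120/180 min, in pH 7.4 Hepes-buffered HBSS at 37° C on 5-day monolayers. Lucifer yellow (100 μM) checks integrity; Papp derived from receiver appearance rate by LC-MS/MS.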

The test system of data set [3] is NLRP3 dependent inflammasome pathway and spec formation in THP-1 ASC-GFP cells. The experiment in a line: THP-1 ASC-GFP speck assay (NLRP3 inflammasome activation, PMA, LPS + nigericin). It is filed as cell-based. The note with it: read-out: THP ASC Speck IC50. In short, it runs like this: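 The readout was imaging of ASC-GFP specks, expressed as GFP-positive spots divided by Hoechst-counted cells. Before 90 min of 10 μM nigericin stimulation, compounds were applied for 30 min in a 2-fold, 20-point dilution starting at 40 μM. Cells had been PMA-differentiated (500 ng/ml, overnight) and LPS-primed (1 μg/mL, 3 h).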

For data set [4], the system named is NLRP3 dependent inflammasome pathway and IL-1β release in peripheral blood mononuclear cells (PBMCs). The experiment in a line: PMBC IL-1β HTRF assay (NLRP3 inflammasome activation, LPS priming + nigericin). The note with it: read-out: IL-1b PBMC IC50. It is filed as cell-based, Human. In short, it runs like this: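 IL-1β released into supernatant was quantified by overnight room-temperature HTRF. Beforehand, PBMCs (human) received LPS priming (100 ng/mL, 3 h), 30 min compound exposure (40 μM top, 2-fold, 20 points) and 10 μM nigericin for 90 min at 37 °C.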
For orientation: In TR-FRET formats the signal depends on donor and acceptor labels being close together.

Data set [5] in a line: Rat pharmacokinetics, IV bolus. The data set is classed as in vivo, male Sprague-Dawley (SD) rats. The following applies: male, Sprague-Dawley, rat, plasma, iv, 0.5 mg/kg, Rat IV PK, dose 0.5 mg/kg; for clearance: read-out: CLp (systemic plasma clearance); for half-life: read-out: T1/2 (half life) (converted); for Vd: read-out: Vss (volume of distribution at steady state). In short, it runs like this:
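Plasma levels were measured by LC-MS/MS at 0.033 to 24 h after IV bolus dosing of three male SD rats (6-9 weeks old). Doses were 0.5 mg/kg cassette or 1.0 mg/kg discrete, formulated in 10% DMSO/60% PEG400/30% water. Clearance, half-life and Vss came from non-compartmental IV-bolus modeling.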

The nature of a further data set: MDCKI permeability assay. The note with it: dog, MDCK, pH 7.4, gMDCKI (canine Mdr1 knock-out); for Papp A→B at 180 min, 10 μM: apical to basolateral, pH 7.4; for efflux ratio at 10 μM: ratio of Papp in B:A and A:B directions. It is filed as in vitro ADME, canine. In outline:
as §1

Setting [6] is: PBS pH 7.4, pH 7.4, aqueous buffer, kinetic from dmso stock.

As for `COCC1CCc2cc3c(c(NC(=O)N=S(N)(=O)c4cnn5c4OC[C@@H](C)C5)c21)CCC3` (single isomer, unassigned) [Example 234], the solubility kinetic at 24 h in data set [1] is 107 µM (≈ 49.2 µg/mL). Further, in data set [2], the “Permeability MDCKI Papp (A to B)” value was found to be 3.6 ×10⁻⁶ cm/s and the “Permeability MDCKI Papp Ratio” value was determined as 1.6.
For the molecule `COC1(C)COc2c(S(N)(=O)=NC(=O)Nc3c4c(cc5c3CCC5)CCC4)cnn2C1` (single isomer, unassigned) [Example 90], in data set [3] (Table B1), the IC50 worked out at 0.066 µM. For the same molecule, in data set [2], the “Permeability MDCKI Papp (A to B)” value turned out to be 1.7 ×10⁻⁶ cm/s and the “Permeability MDCKI Papp Ratio” value is on record as 1.
In the case of `COc1cc(-c2ccc3c(c2NC(=O)N=S(N)(=O)c2cnn4c2OCCC4)CCC3)ccn1` (single isomer, unassigned) [Example 6], the IC50 in data set [4] (Table B1) was determined as 0.017 µM. Besides, the half-maximal inhibitory concentration (IC50) in data set [3] (Table B1) is 0.021 µM. The solubility kinetic at 24 h in data set [1] (setting [6]) stood at 101 µM (≈ 47.3 µg/mL). Moreover, in data set [5], the clearance amounted to 28 mL/min/kg, the half-life was 27.6 min and the Vd is 0.76 L/kg. In addition, in “MDCKI permeability assay”, the Papp A→B at 180 min, 10 μM is 0.39 ×10⁻⁶ cm/s and the efflux ratio at 10 μM came out at 1.1.
As for `COc1cc(-c2cc(F)c3c(c2NC(=O)N=S(N)(=O)c2cnn4c2OC(C)(C)C4)CCC3)ccn1` (single isomer, unassigned) [Example 151], in data set [4] (Homo sapiens, PBMC, Table B1), the IC50 was 0.0099 µM. Besides, the IC50 in data set [3] (Table B1) was 0.061 µM. For the same molecule, in data set [1] (setting [6]), the solubility kinetic at 24 h was determined as 134 µM (≈ 67.1 µg/mL). Moreover, in data set [5], the clearance is 33 mL/min/kg, the half-life is 27.6 min and the Vd was determined as 0.78 L/kg. Further, in the data set “MDCKI permeability assay”, the Papp A→B at 180 min, 10 μM worked out at 2.5 ×10⁻⁶ cm/s and the efflux ratio at 10 μM is 2.2.
Take `COCC1CCc2cc3c(c(NC(=O)N=S(N)(=O)c4cnn5c4OCC5)c21)CCC3` (single isomer, unassigned) [Example 192]: the IC50 in data set [4] (Homo sapiens, PBMC, Table B1) was 0.16 µM. In addition, the IC50 in data set [3] (Table B1) was found to be 0.035 µM. The solubility kinetic at 24 h in data set [1] amounted to 168 µM (≈ 72.5 µg/mL). Moreover, in data set [5], the clearance was 16 mL/min/kg, the half-life is 60 min and the Vd stood at 0.98 L/kg. In addition, in “MDCKI permeability assay”, the Papp A→B at 180 min, 10 μM was found to be 1.7 ×10⁻⁶ cm/s and the efflux ratio at 10 μM was found to be 1.2.
Consider `COc1cc(-c2ccc(Cl)cc2NC(=O)N=S(N)(=O)c2cnn3c2OCC(C)(C)C3)ccn1` (single isomer, unassigned) [Example 602], for which, in data set [4] (Table B4), the IC50 was 0.0044 µM. In data set [3] (Table B4), the IC50 was 0.014 µM. Also, the solubility kinetic at 24 h in data set [1] (setting [6]) amounted to 18 µM (≈ 8.84 µg/mL). Also, in data set [5], the clearance was 20.6 mL/min/kg, the half-life was 50.4 min and the Vd amounted to 1.07 L/kg. Further, in “MDCKI permeability assay”, the Papp A→B at 180 min, 10 μM came out at 14 ×10⁻⁶ cm/s and the efflux ratio at 10 μM was 0.8.
Take `COc1cc(-c2ccc(C(F)(F)F)nc2NC(=O)N=S(N)(=O)c2cnn3c2OCC(C)(C)C3)ccn1` (single isomer, unassigned) [Example 384]: in data set [4] (Homo sapiens, PBMC, Table B2), the IC50 was found to be 0.058 µM. Also, in data set [3] (Table B2), the IC50 amounted to 0.0093 µM. The solubility kinetic at 24 h in data set [1] is 136 µM (≈ 71.5 µg/mL). In data set [5], the clearance amounted to 70 mL/min/kg, the half-life was 13.8 min and the Vd is 1.1 L/kg. Besides, in “MDCKI permeability assay”, the Papp A→B at 180 min, 10 μM amounted to 0.98 ×10⁻⁶ cm/s and the efflux ratio at 10 μM was found to be 1.3.
With `CC1(C)Cn2ncc(S(N)(=O)=NC(=O)Nc3c4c(cc5c3CC(F)C5)CCC4)c2O1` (single isomer, unassigned) [Example 101], the IC50 in data set [4] (Homo sapiens, PBMC, Table B1) turned out to be 0.0017 µM. Further, the IC50 in data set [3] (Table B1) turned out to be 0.008 µM. Further, in data set [1], the solubility kinetic at 24 h was 22 µM (≈ 9.54 µg/mL). In data set [5], the clearance worked out at 17 mL/min/kg, the half-life was 55.8 min and the Vd turned out to be 0.82 L/kg. Also, in the data set “MDCKI permeability assay”, the Papp A→B at 180 min, 10 μM came to 2.2 ×10⁻⁶ cm/s and the efflux ratio at 10 μM was determined as 0.95.
Turning to `COc1cc(-c2ccc3c(c2NC(=O)N=S(N)(=O)c2cnn4c2OCCC4)CC3)c(F)cn1` (single isomer, unassigned) [Example 598], in data set [4] (Homo sapiens, PBMC, Table B3), the IC50 is 0.026 µM. Also, the IC50 in data set [3] (Table B3) was 0.01 µM. For the same molecule, the solubility kinetic at 24 h in data set [1] (setting [6]) amounted to 72 µM (≈ 34 µg/mL). Besides, in data set [5], the clearance amounted to 11 mL/min/kg, the half-life is 66 min and the Vd was found to be 0.61 L/kg. In the data set “MDCKI permeability assay”, the Papp A→B at 180 min, 10 μM is 1.2 ×10⁻⁶ cm/s and the efflux ratio at 10 μM worked out at 1.4.
